Measurements: patent US20240317744A1, “Bicyclic Ureas As Kinase Inhibitors” (Incyte Corporation, priority 2023, published 2024)

Assays:
[1] = molecular target: T1, catalytic domain (JH1, amino acids 826-1132) of human JAK2 (Homo sapiens, UniProt O60674); assay: JAK2 LanthaScreen JH1 Binding Assay; settings: JAK2 JH1 1.5 nM, 50 nM tracer, 2 hours at 25° C.; read-out: JH1 BIND
T1 construct: catalytic domain (JH1, amino acids 826-1132) of human JAK2; FLAG (N); biotin (biotinylated); purchased Carna Biosciences 08-445-20N; host or cells: baculovirus expression system
T1 sequence (O60674 826-1132): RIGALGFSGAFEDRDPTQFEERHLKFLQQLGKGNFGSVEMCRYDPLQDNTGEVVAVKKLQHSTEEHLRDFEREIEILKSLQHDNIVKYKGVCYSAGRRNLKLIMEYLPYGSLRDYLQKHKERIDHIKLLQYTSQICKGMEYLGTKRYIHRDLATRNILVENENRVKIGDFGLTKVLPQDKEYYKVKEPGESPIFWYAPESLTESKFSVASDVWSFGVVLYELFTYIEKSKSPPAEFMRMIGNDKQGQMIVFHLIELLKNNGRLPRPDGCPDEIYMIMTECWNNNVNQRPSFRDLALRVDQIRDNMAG
Description: Example A. JAK2 LanthaScreen JH1 Binding Assay
JAK2 JH1 binding assay utilizes catalytic domain (JH1, amino acids 826-1132) of human JAK2 expressed as N-terminal FLAG-tagged, biotinylated protein in a baculovirus expression system (Carna Biosciences, Product #08-445-20N). The assay was conducted in black 384-well polystyrene plates in a final reaction volume of 20 μL. JAK2 JH1 (1.5 nM) was incubated with compounds (100 nL serially diluted in DMSO) in the presence of 50 nM fluorescent JAK2-JH1 tracer and 0.5 nM Streptavidin-Tb cryptate (Cisbio Part #610SATLB) in assay buffer (50 mM Tris, pH=7.5, 10 mM MgCl2, 0.01% Brij-35, 0.1% BSA, 1 mM EGTA, 5% Glycerol and 5 mM DTT). Non-specific binding was accessed in the presence of 2 mM ATP. After incubation for 2 hours at 25° C., LanthaScreen signals were read on a PHERAstar FS plate reader (BMG LABTECH). Data was analyzed with IDBS XLfit and GraphPad Prism 5.0 software using a four parameter dose response curve to determine IC50 for each compound.

[2] = molecular target: T2, pseudo-kinase domain (JH2, amino-acids 536-812) of human V617F mutant JAK2 (Homo sapiens, UniProt O60674, F794H/V617F/W659A/W777A); assay: JAK2 LanthaScreen JH2-V617F Binding Assay; settings: JAK2 JH2-V617F 0.26 nM, 50 nM tracer, 1 hour at 25° C.; read-out: JH2 BIND V617F
T2 construct: pseudo-kinase domain (JH2, amino-acids 536-812 with 3 surface mutations W659A, W777A, F794H); His (C); purchased BPS Bioscience 79498; host or cells: baculovirus expression system
T2 sequence (O60674 536-812 V617F/W659A/W777A/F794H): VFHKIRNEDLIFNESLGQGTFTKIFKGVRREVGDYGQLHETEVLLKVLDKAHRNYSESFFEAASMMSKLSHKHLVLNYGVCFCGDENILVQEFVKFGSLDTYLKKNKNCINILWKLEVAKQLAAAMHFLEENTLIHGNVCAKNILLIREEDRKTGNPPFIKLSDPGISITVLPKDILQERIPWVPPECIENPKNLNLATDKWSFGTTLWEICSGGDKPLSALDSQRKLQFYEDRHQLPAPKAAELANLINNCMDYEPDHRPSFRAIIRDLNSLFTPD
Outline: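 Biotinylated His-Avi-tagged JH2 protein was baculovirus-expressed and used at 0.26 nM. It was incubated with compound, 50 nM fluorescent JH2 tracer and 0.25 nM streptavidin-Tb for 1 h at 25 °C in pH 7.5 Tris buffer with MgCl2, BSA, DTT. Non-specific binding was defined with 2 mM ATP. IC50 came from four-parameter fits of TR-FRET signal.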

[3] = molecular target: catalytic domain (JH1, amino acids 808-1132) of human JAK2 (Homo sapiens, UniProt O60674); assay: JAK2 HTRF Enzyme Activity Assay; type: biochemical; settings: ATP 30 µM, 60 minutes at 25° C.; read-out: V617F ENZ 30 UM
Sequence of catalytic domain (JH1, amino acids 808-1132) of human JAK2 (O60674 808-1132 limits assumed): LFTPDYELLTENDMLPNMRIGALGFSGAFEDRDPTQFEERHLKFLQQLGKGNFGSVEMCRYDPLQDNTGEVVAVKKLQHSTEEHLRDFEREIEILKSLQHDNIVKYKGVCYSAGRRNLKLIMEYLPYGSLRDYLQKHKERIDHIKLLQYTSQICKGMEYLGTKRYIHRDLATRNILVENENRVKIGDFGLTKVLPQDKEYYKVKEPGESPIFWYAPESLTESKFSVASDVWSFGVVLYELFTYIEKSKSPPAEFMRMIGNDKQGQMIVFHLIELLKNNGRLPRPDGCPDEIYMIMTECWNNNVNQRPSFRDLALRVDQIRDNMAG

[4] = molecular target: T3, pseudo-kinase domain (JH2, amino-acids 536-812) of human Wild Type JAK2 (Homo sapiens, UniProt O60674, F794H/W659A/W777A); assay: JAK2 LanthaScreen JH2-WT Binding Assay; settings: JAK2 JH2-WT 0.145 nM, 50 nM tracer, 1 hour at 25° C.; read-out: JH2 BIND WT
T3 construct: pseudo-kinase domain (JH2, amino-acids 536-812 with 3 surface mutations W659A, W777A, F794H); His (C); purchased BPS Bioscience 79463; host or cells: baculovirus expression system
T3 sequence (O60674 536-812 W659A/W777A/F794H): as the sequence (O60674 536-812 V617F/W659A/W777A/F794H) above, with F82V counted along it
Description: Example B. JAK2 LanthaScreen JH2-WT Binding Assay
JAK2 JH2-WT binding assay utilizes pseudo-kinase domain (JH2, amino-acids 536-812 with 3 surface mutations W659A, W777A, F794H) of human Wild Type JAK2 expressed as C-terminal His-Avi-tagged, biotinylated protein in a baculovirus expression system (BPS Bioscience, Catalog #79463). The assay was conducted in black 384-well polystyrene plates in a final reaction volume of 20 μL. JAK2 JH2-WT (0.145 nM) was incubated with compounds (100 nL serially diluted in DMSO) in the presence of 50 nM Fluorescent JAK2-JH2 Tracer (MedChem Express Catalog #HY-102055) and 0.25 nM Streptavidin-Tb cryptate (Cisbio Part #610SATLB) in assay buffer (50 mM Tris, pH=7.5, 10 mM MgCl2, 0.01% Brij-35, 0.1% BSA, 1 mM EGTA, 5% Glycerol and 5 mM DTT). Non-specific binding was accessed in the presence of 2 mM ATP. After incubation for 1 hour at 25° C., LanthaScreen signals were read on a PHERAstar FS plate reader (BMG LABTECH). Data was analyzed with IDBS XLfit and GraphPad Prism 5.0 software using a four parameter dose response curve to determine IC50 for each compound.

| SMILES | IC50 [1] | IC50 [2] | IC50 [3] | IC50 [4] |
| --- | --- | --- | --- | --- |
| [2H]C([2H])([2H])n1c(=O)n([C@H]2CC[C@@](C)(NC(=O)C3CC3)CC2)c2cc(Nc3ccc4nn(C)c(-c5cnn(C(F)(F)F)c5)c4n3)ncc21 (single isomer, unassigned) [Example 91, N-((1s,4s)-1-Methyl-4-(3-(methyl-d3)-6-((2-methyl-3-(1-(trifluoromethyl)-1H-pyrazol-4-yl)-2H-pyrazolo[4,3-b]pyridin-5-yl)amino)-2-oxo-2,3-dihydro-1H-imidazo[4,5-c]pyridin-1-yl)cyclohexyl)cyclopropanecarboxamide] | > 1000 nM | ≤ 10 nM | 10 to 100 nM | ≤ 10 nM |
| [2H]C([2H])([2H])n1c(=O)n([C@]2([2H])CC[C@@H](NC(=O)OC)C2)c2cc(Nc3cc(-c4cnccc4C(F)(F)F)c4nc(C)c(-c5cnn(C(F)F)c5)n4n3)ncc21 (single isomer, unassigned) [Example 97] | > 1000 nM | ≤ 10 nM | 500 to 1000 nM | ≤ 10 nM |
| CCOC(=O)c1cnc(Nc2cc(Nc3cc4c(cn3)n(C)c(=O)n4[C@@H]3CC[C@@H](NC(=O)OC)C3)cc(-c3cccc(C#N)c3)c2)o1 [Example 1, Ethyl 2-((3′-cyano-5-((1-((1R,3R)-3-((methoxycarbonyl)amino)cyclopentyl)-3-methyl-2-oxo-2,3-dihydro-1H-imidazo[4,5-c]pyridin-6-yl)amino)-[1,1′-biphenyl]-3-yl)amino)oxazole-5-carboxylate] | > 1000 nM | 100 to 500 nM | > 1000 nM | 10 to 100 nM |
| COC(=O)N[C@@H]1CC[C@@H](n2c(=O)n(C)c3cnc(Nc4cc(NC(=O)C5(F)CCOCC5)cc(-c5cccc(C#N)c5)c4)cc32)C1 [Example 2, Methyl ((1R,3R)-3-(6-((3′-cyano-5-(4-fluorotetrahydro-2H-pyran-4-carboxamido)-[1,1′-biphenyl]-3-yl)amino)-3-methyl-2-oxo-2,3-dihydro-1H-imidazo[4,5-c]pyridin-1-yl)cyclopentyl)carbamate] | > 1000 nM | ≤ 10 nM | > 1000 nM | ≤ 10 nM |
| [2H]C([2H])([2H])n1c(=O)n([C@@H]2CC[C@@H](NC(=O)OC)C2)c2cc(Nc3cc(C(=O)N4CC5(CCN5C)C4)c4cccc(C(F)(F)F)c4n3)ncc21 [Example 3, Methyl ((1R,3R)-3-(3-(methyl-d3)-6-((4-(1-methyl-1,6-diazaspiro[3.3]heptane-6-carbonyl)-8-(trifluoromethyl)quinolin-2-yl)amino)-2-oxo-2,3-dihydro-1H-imidazo[4,5-c]pyridin-1-yl)cyclopentyl)carbamate] | > 1000 nM | ≤ 10 nM | 500 to 1000 nM | ≤ 10 nM |
| COC(=O)N[C@@H]1CC[C@@H](n2c(=O)n(C)c3cnc(Nc4cccc(-c5ccc(CO)c(C)c5)n4)cc32)C1 [Example 4, Methyl ((1R,3R)-3-(6-((6-(4-(hydroxymethyl)-3-methylphenyl)pyridin-2-yl)amino)-3-methyl-2-oxo-2,3-dihydro-1H-imidazo[4,5-c]pyridin-1-yl)cyclopentyl)carbamate] | > 1000 nM | ≤ 10 nM | > 1000 nM | ≤ 10 nM |
| COC(=O)N[C@@H]1CC[C@@H](n2c(=O)n(C)c3cnc(Nc4cccc(-c5ccc(OC)nc5)n4)cc32)C1 [Example 5, Methyl ((1R,3R)-3-(6-((6′-methoxy-[2,3′-bipyridin]-6-yl)amino)-3-methyl-2-oxo-2,3-dihydro-1H-imidazo[4,5-c]pyridin-1-yl)cyclopentyl)carbamate] | > 1000 nM | ≤ 10 nM | > 1000 nM | ≤ 10 nM |
| [2H]C([2H])([2H])n1c(=O)n([C@@H]2CC[C@@H](NC(=O)OC)C2)c2cc(Nc3cc(C(=O)N4CCC(C#N)CC4)c4cccc(C(F)(F)F)c4n3)ncc21 [Example 6, Methyl ((1R,3R)-3-(6-((4-(4-cyanopiperidine-1-carbonyl)-8-(trifluoromethyl)quinolin-2-yl)amino)-3-(methyl-d3)-2-oxo-2,3-dihydro-1H-imidazo[4,5-c]pyridin-1-yl)cyclopentyl)carbamate] | 100 to 500 nM | ≤ 10 nM | 100 to 500 nM | ≤ 10 nM |
| COC(=O)N[C@@H]1CC[C@@H](n2c(=O)n(C)c3cnc(Nc4cccc(-c5ccc6[nH]nc(C)c6c5)n4)cc32)C1 [Example 7, Methyl ((1R,3R)-3-(3-methyl-6-((6-(3-methyl-1H-indazol-5-yl)pyridin-2-yl)amino)-2-oxo-2,3-dihydro-1H-imidazo[4,5-c]pyridin-1-yl)cyclopentyl)carbamate] | > 1000 nM | 10 to 100 nM | > 1000 nM | ≤ 10 nM |
| COC(=O)N[C@@H]1CC[C@@H](n2c(=O)n(C)c3cnc(Nc4cccc(-c5ccc6c(c5)OCCO6)n4)cc32)C1 [Example 8, Methyl ((1R,3R)-3-(6-((6-(2,3-dihydrobenzo[b][1,4]dioxin-6-yl)pyridin-2-yl)amino)-3-methyl-2-oxo-2,3-dihydro-1H-imidazo[4,5-c]pyridin-1-yl)cyclopentyl)carbamate] | > 1000 nM | ≤ 10 nM | > 1000 nM | ≤ 10 nM |
| COC(=O)N[C@@H]1CC[C@@H](n2c(=O)n(C)c3cnc(Nc4cccc(-c5ccc6ncccc6c5)n4)cc32)C1 [Example 9, Methyl ((1R,3R)-3-(3-methyl-2-oxo-6-((6-(quinolin-6-yl)pyridin-2-yl)amino)-2,3-dihydro-1H-imidazo[4,5-c]pyridin-1-yl)cyclopentyl)carbamate] | > 1000 nM | ≤ 10 nM | > 1000 nM | ≤ 10 nM |
| [2H]C([2H])([2H])n1c(=O)n([C@@H]2CC[C@@H](NC(=O)OC)C2)c2cc(Nc3cc(C(=O)N4CC5CC5(O)C4)c4cccc(C(F)(F)F)c4n3)ncc21 (stereo partly drawn) [Example 10, Methyl ((1R,3R)-3-(6-((4-(1-hydroxy-3-azabicyclo[3.1.0]hexane-3-carbonyl)-8-(trifluoromethyl)quinolin-2-yl)amino)-3-(methyl-d3)-2-oxo-2,3-dihydro-1H-imidazo[4,5-c]pyridin-1-yl)cyclopentyl)carbamate] | 500 to 1000 nM | ≤ 10 nM | 100 to 500 nM | ≤ 10 nM |
| COC(=O)N[C@@H]1CC[C@@H](n2c(=O)n(C)c3cnc(Nc4cccc(-c5ccc6c(c5)OCCN6C)n4)cc32)C1 [Example 11, Methyl ((1R,3R)-3-(3-methyl-6-((6-(4-methyl-3,4-dihydro-2H-benzo[b][1,4]oxazin-7-yl)pyridin-2-yl)amino)-2-oxo-2,3-dihydro-1H-imidazo[4,5-c]pyridin-1-yl)cyclopentyl)carbamate] | > 1000 nM | ≤ 10 nM | > 1000 nM | ≤ 10 nM |
